Test results as given in patent US20200181121A1, “Cocrystal of Telmisartan and Hydrochlorothiazide” (SHANGHAI INSTITUTE OF MATERIA MEDICA, CHINESE ACADEMY OF …, priority 2017, published 2020).

Assay: Accelerated stability test (ICH Q1E), change of the content
Type: physicochemical
Details: 40°C±2°C, RH 75±5%, polyethylene-sealed bag
Protocol: According to the description in “Stability Data Evaluation” of ICH guidelines Q1E, a comparison of accelerated stability test (at 40° C.±2° C., RH 75±5%) of cocrystal of hydrochlorothiazide and telmisartan obtained in Example 1 with that of telmisartan or hydrochlorothiazide itself was conducted respectively. The cocrystal of telmisartan and hydrochlorothiazide, telmisartan, and hydrochlorothiazide were double packaged using the polyethylene-sealed bag respectively, stood for 1, 2 or 3 months under the accelerated stability test conditions (at 40° C.±2° C., RH 75±5%). Then the samples were taken and measured for the change of the content.

content of hydrochlorothiazide (0 month) [%]	content of hydrochlorothiazide (1 month) [%]	content of hydrochlorothiazide (2 months) [%]	content of hydrochlorothiazide (3 months) [%]	content of telmisartan (0 month) [%]	content of telmisartan (1 month) [%]	content of telmisartan (2 months) [%]	content of telmisartan (3 months) [%]	SMILES
100	97.37	96.34	95.28					NS(=O)(=O)c1cc2c(cc1Cl)NCNS2(=O)=O [Hydrochlorothiazide, 6-chloro-3,4-dihydro-2H-1,2,4-benzothiadiazine-7-sulfonamido-1,1-dioxide]
				100	97.28	94.47	94.20	CCCc1nc2c(C)cc(-c3nc4ccccc4n3C)cc2n1Cc1ccc(-c2ccccc2C(=O)O)cc1 [Telmisartan, 4′-[[2-propyl-4-methyl-6(1-methyl-benzimidazol-2-yl)-benzimidazol-1-yl]methyl]-2-biphenylcarboxylic acid]
